The subject of the first experiment is FOXC2-expressing HMLER cells. The experiment is described as follows: Cell Titer Glo viability of FOXC2-HMLER cells (high throughput screen and 10-point response). The format is cell-based. Particulars: Homo sapiens; scored relative to parent compound 3; 72 hours; read-out: Activity Score, inhibition of FOXC2-expressing HMLER cells by Formula III compounds. An outline of the steps: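 Viability after 72 h compound exposure was measured as Cell Titer Glo luminescence. FOXC2-HMLER and parental HMLER cells, 1,000 per well in MEGM medium, were dosed 1 h after plating; screening concentration was 2 μM.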
For orientation: Cellular ATP, detected with luciferase, serves as a proxy for viable cell number.
As to `Cc1cc(C(=O)N2CCN(c3ccccc3)CC2)ccc1-n1nnc2cccnc21` [Compound 3L], the IC50 was 1 to 20 µM.
As for `Cc1cc(C(=O)N2CCC(Cc3ccccc3)CC2)ccc1-n1nnc2cccnc21` [Compound 3M], the IC50 was in the range of 1 to 20 µM.
Turning to `Cc1cc(C(=O)NC2CCN(Cc3ccccc3)CC2)ccc1-n1nnc2cccnc21` [Compound 3N], the IC50 lay within 1 to 20 µM.
In the case of `Cc1cc(C(=O)Nc2cccc(CN3CCCC3)c2)ccc1-n1nnc2cccnc21` [Compound 3O], the IC50 lay within 1 to 20 µM.
As for `O=C(c1cccc(-n2nnc3cccnc32)c1)N1CCN(c2ccccc2)CC1` [Compound 3P], the IC50 is 1 to 20 µM.
On the same count and under the same terms, in the case of `O=C(c1cccc(-n2nnc3cccnc32)c1)N1CCN(c2cccc(Cl)c2)CC1` [Compound 3Q] it was 1 to 20 µM.
Consider `O=C(c1cccc(-n2nnc3cccnc32)c1)N1CCN(C2CCCCC2)CC1` [Compound 3R], for which the IC50 was 1 to 20 µM.
As to `Cc1cccc(N2CCN(C(=O)c3cccc(-n4nnc5cccnc54)c3)CC2C)c1` (stereo not drawn) [Compound 3S], the IC50 was in the range of 1 to 20 µM.
Still for that read-out and setting: in the case of `Cc1ccc(CN2CCC(CNC(=O)c3cccc(-n4nnc5cccnc54)c3)CC2)cc1` [Compound 3T] it was 1 to 20 µM.
Turning to `COc1cccc(N2CCN(C(=O)c3ccc(C)c(-n4nnc5cccnc54)c3)CC2)c1` [Compound 3U], the IC50 lay in the range of 1 to 20 µM.
On to `Cc1ccc(C(=O)N2CCN(c3ccccc3)CC2)cc1-n1nnc2cccnc21` [Compound 3V], for which the IC50 is 1 to 20 µM.
On to `Cc1ccc(C(=O)N2CCN(c3cccc(Cl)c3)CC2)cc1-n1nnc2cccnc21` [Compound 3W], for which the IC50 lay in the range of 1 to 20 µM.
On the same count and under the same terms, in the case of `Cc1ccc(C)c(N2CCN(C(=O)c3ccc(C)c(-n4nnc5cccnc54)c3)CC2)c1` [Compound 3X] it was 1 to 20 µM; in that of `Cc1ccc(Cl)cc1N1CCN(C(=O)c2ccc(C)c(-n3nnc4cccnc43)c2)CC1` [Compound 3Y], 1 to 20 µM.
On the same count and under the same terms, in the case of `Cc1ccc(C(=O)N2CCC(Cc3ccccc3)CC2)cc1-n1nnc2cccnc21` [Compound 3Z] it was 1 to 20 µM; in that of `Cc1cccc(N2CCN(C(=O)c3cccc(-n4nnc5cccnc54)c3C)CC2C)c1` (stereo not drawn) [Compound 3], below 1 µM.

Still in this experiment, the particulars now being: Homo sapiens; scored relative to parent compound 4; 72 hours; read-out: Activity Score, inhibition of FOXC2-expressing HMLER cells by Formula IV compounds.
`Cc1ccc(C)c(N2CCN(S(=O)(=O)c3c(C)nn(-c4ccc(F)cc4)c3C)CC2)c1` [Compound 4AA]: the IC50 is above 20 µM.
As for `Cc1nn(-c2ccc(F)cc2)c(C)c1S(=O)(=O)N1CCN(c2ccccn2)CC1` [Compound 4AB], the IC50 was above 20 µM.
On the same count and under the same terms, in the case of `Cc1nn(-c2ccc(F)cc2)c(C)c1S(=O)(=O)N1CCN(c2ccc(F)cc2)CC1` [Compound 4AC] it was above 20 µM.
Same read-out and setting: in the case of `Cc1ccc(-n2nc(C)c(S(=O)(=O)N3CCN(c4ccc(Cl)cc4)CC3)c2C)cc1` [Compound 4AD] it was above 20 µM; in that of `Cc1ccc(-n2nc(C)c(S(=O)(=O)N3CCN(c4cccc(C)c4C)CC3)c2C)cc1` [Compound 4AE], above 20 µM.
Same read-out and setting: in the case of `Cc1ccc(-n2nc(C)c(S(=O)(=O)N3CCN(c4ccccn4)CC3)c2C)cc1` [Compound 4AF] it was above 20 µM.
Turning to `Cc1c(S(=O)(=O)N2CCCN(c3ccc(=O)n(-c4ccc(F)cc4)n3)CC2)cnn1C(F)F` [Compound 4AG], the IC50 was above 20 µM.
With `Cc1ccc(-n2nc(N3CCCN(S(=O)(=O)c4cnn(C(F)F)c4C)CC3)ccc2=O)cc1C` [Compound 4AH], the IC50 is above 20 µM.
Still for that read-out and setting: in the case of `Cc1ccc(-n2nc(N3CCCN(S(=O)(=O)c4cnn(C(F)F)c4C)CC3)ccc2=O)cc1` [Compound 4AI] it was above 20 µM.
Regarding `Cc1c(S(=O)(=O)N2CCN(c3ccc(=O)n(-c4ccc(F)cc4)n3)CC2)cnn1C(F)F` [Compound 4AJ], the IC50 is above 20 µM.
On the same count and under the same terms, in the case of `Cc1ccc(-n2nc(N3CCN(S(=O)(=O)c4cnn(C(F)F)c4C)CC3)ccc2=O)cc1C` [Compound 4AK] it was above 20 µM.
The same measure, in the same setting: in the case of `Cc1c(S(=O)(=O)N2CCN(c3ccc(=O)n(-c4ccccc4)n3)CC2)cnn1C(F)F` [Compound 4AL] it was above 20 µM; in that of `Cc1c(S(=O)(=O)N2CCN(c3ccc(=O)n(-c4ccc(Cl)cc4)n3)CC2)cnn1C(F)F` [Compound 4AM], above 20 µM.
The same measure, in the same setting: in the case of `Cc1c(S(=O)(=O)N2CCN(C)c3ccccc32)cnn1C(F)F` [Compound 4AN] it was above 20 µM; in that of `Cc1nn(-c2ccc(-c3ccccc3)nn2)c(C)c1S(=O)(=O)N1CCN(c2ccccc2)CC1` [Compound 4AO], above 20 µM; in that of `Cc1nn(-c2ccc(-c3ccccc3)nn2)c(C)c1S(=O)(=O)N1CCN(c2ccccn2)CC1` [Compound 4AP], above 20 µM.
Turning to `Cc1cccc(N2CCN(S(=O)(=O)c3c(C)nn(-c4ccc(-c5ccccc5)nn4)c3C)CC2)c1` [Compound 4AQ], the IC50 was above 20 µM.
In the case of `Cc1ccccc1N1CCN(S(=O)(=O)c2c(C)nn(-c3ccc(-c4ccccc4)nn3)c2C)CC1` [Compound 4AR], the IC50 is above 20 µM.
For the compound `Cc1ccc(N2CCN(S(=O)(=O)c3c(C)nn(-c4ccc(-c5ccccc5)nn4)c3C)CC2)cc1` [Compound 4AS], the IC50 was above 20 µM.
The same measure, in the same setting: in the case of `Cc1ccc(-c2ccc(-n3nc(C)c(S(=O)(=O)N4CCN(c5ccccc5)CC4)c3C)nn2)cc1` [Compound 4AT] it was above 20 µM; in that of `Cc1ccc(-c2ccc(-n3nc(C)c(S(=O)(=O)N4CCN(C(C)C)CC4)c3C)nn2)cc1` [Compound 4AU], above 20 µM; in that of `Cc1c(S(=O)(=O)N2CCN(c3cc(-c4cccc(F)c4)ncn3)CC2)cnn1C(F)F` [Compound 4A], below 1 µM.
For `Cc1ccccc1-c1cc(N2CCN(S(=O)(=O)c3cnn(C(F)F)c3C)CC2)ncn1` [Compound 4B], the IC50 is below 1 µM.
The same measure, in the same setting: in the case of `COc1cccc(-c2cc(N3CCN(S(=O)(=O)c4cnn(C(F)F)c4C)CC3)ncn2)c1` [Compound 4C] it was below 1 µM; in that of `Cc1ccc(C)c(N2CCN(S(=O)(=O)c3c(C)nn(C)c3C)CC2)c1` [Compound 4D], below 1 µM; in that of `Cc1ccc(-c2cc(N3CCN(S(=O)(=O)c4ccccc4C)CC3)ncn2)cc1` [Compound 4E], below 1 µM.
Same read-out and setting: in the case of `Cc1cccc(N2CCN(S(=O)(=O)c3c(C)nn(-c4ccc(F)cc4)c3C)CC2)c1C` [Compound 4F] it was below 1 µM.
With `Cc1nn(-c2ccc(Cl)cc2)c(C)c1S(=O)(=O)N1CCN(c2ccccn2)CC1` [Compound 4G], the IC50 is below 1 µM.
Same read-out and setting: in the case of `CC(=O)c1ccc(N2CCN(S(=O)(=O)c3c(C)nn(-c4ccc(C)cc4)c3C)CC2)cc1` [Compound 4H] it was below 1 µM; in that of `Cc1cccc(-c2cc(N3CCN(S(=O)(=O)c4ccccc4C)CC3)ncn2)c1` [Compound 4I], 1 to 20 µM.
For `Cc1nn(-c2ccccc2)c(C)c1S(=O)(=O)N1CCN(c2ccccn2)CC1` [Compound 4J], the IC50 was in the range of 1 to 20 µM.
Same read-out and setting: in the case of `Cc1nn(-c2ccc(F)cc2)c(C)c1S(=O)(=O)N1CCN(c2ncccn2)CC1` [Compound 4K] it was 1 to 20 µM.
Take `Cc1ccc(-n2nc(C)c(S(=O)(=O)N3CCN(c4ccccc4)CC3)c2C)cc1` [Compound 4L]: the IC50 lay in the range of 1 to 20 µM.
On the same count and under the same terms, in the case of `Cc1ccc(-n2nc(C)c(S(=O)(=O)N3CCN(c4ncccn4)CC3)c2C)cc1` [Compound 4M] it was 1 to 20 µM; in that of `Cc1nn(C)c(C)c1S(=O)(=O)N1CCN(c2cccc(Cl)c2)CC1` [Compound 4N], above 20 µM.
The same measure, in the same setting: in the case of `Cc1cccc(N2CCN(S(=O)(=O)c3c(C)nn(C)c3C)CC2C)c1` (stereo not drawn) [Compound 4O] it was above 20 µM.
On the same count and under the same terms, in the case of `Cc1nn(C)c(C)c1S(=O)(=O)N1CCN(c2ccccc2F)CC1` [Compound 4P] it was above 20 µM; in that of `Cc1nn(C)c(C)c1S(=O)(=O)N(CC(=O)N1CCN(c2ncccn2)CC1)c1ccc(C(C)C)cc1` [Compound 4Q], above 20 µM; in that of `Cc1cccc(-c2cc(N3CCN(S(=O)(=O)c4ccc(C)cc4C)CC3)ncn2)c1` [Compound 4R], above 20 µM.
On to `Cc1cccc(-c2cc(N3CCN(S(=O)(=O)c4cnn(C(F)F)c4C)CC3)ncn2)c1` [Compound 4S], for which the IC50 was above 20 µM.
The same measure, in the same setting: in the case of `Cc1c(S(=O)(=O)N2CCN(c3cc(-c4ccc(F)cc4)ncn3)CC2)cnn1C(F)F` [Compound 4T] it was above 20 µM; in that of `Cc1ccc(-c2cc(N3CCN(S(=O)(=O)c4ccc(C)cc4C)CC3)ncn2)cc1` [Compound 4U], above 20 µM.
`Cc1ccccc1S(=O)(=O)N1CCN(c2cc(-c3ccccc3)ncn2)CC1` [Compound 4V]: the IC50 was above 20 µM.
Regarding `Cc1ccc(S(=O)(=O)N2CCN(c3cc(-c4ccccc4)ncn3)CC2)c(C)c1` [Compound 4W], the IC50 is above 20 µM.
`Cc1c(S(=O)(=O)N2CCN(c3cc(-c4ccccc4)ncn3)CC2)cnn1C(F)F` [Compound 4X]: the IC50 was above 20 µM.
Same read-out and setting: in the case of `COc1ccc(-c2cc(N3CCN(S(=O)(=O)c4cnn(C(F)F)c4C)CC3)ncn2)cc1` [Compound 4Y] it was above 20 µM.
Still for that read-out and setting: in the case of `COc1ccc(F)cc1-c1cc(N2CCN(S(=O)(=O)c3cnn(C(F)F)c3C)CC2)ncn1` [Compound 4Z] it was above 20 µM.
Same read-out and setting: in the case of `Cc1ccc(-c2cc(N3CCN(S(=O)(=O)c4cnn(C(F)F)c4C)CC3)ncn2)cc1` [Compound 4] it was below 1 µM.

The test system of a further experiment is FOXC2-HMLER cells. Briefly: Confocal imaging of thymidine synced FOXC2-HMLER cells at metaphase. The format is cell-based, human.
Conditions: not given
The source says: Because Compound 1 induces a hyper-phosphorylated VIM phenotype, we sought to determine if Compound 1's engagement of VIM might interfere at an alternative stage of mitosis. We therefore performed time course confocal imaging studies of Compound 1 treated FOXC2-HMLER cells after their release from thymidine blocking-based cell cycle synchronization.
Compound 1 treatment also disrupted the ability of β-tubulin to faithfully form the fine spindle microtubules of the mitotic spindle, instead resulting in a compressed phenotype with radiating projections connecting unaligned chromosomes. To assess the uniqueness of this phenotype, we evaluated the metaphase phenotypes of other chemical inhibitors which have shown to alter mitotic progression. These included inhibitors of centromere-associated protein E (CENP-E, also called kinesin-7, GSK92395), kinesin spindle protein (KSP, also called Eg5, Ispinesib), polo like kinases (PLK1/2/3, BI2536), and aurora kinases (AURKA/B/C, VX-680).
With `CC(C)Oc1ccc(C(=O)N[C@H](CNC(=O)CN(C)C)Cc2ccc(-c3cn4cccc([C@H](C)O)c4n3)cc2)cc1Cl` [GSK92395], the “VIM filamentous structure at metaphase” value is listed as “did not induce VIM filamentous collapse” and the “chromosome alignment to the metaphase plate” value is on record as “unaligned chromosome phenotype”.

The record behind these values is patent publication US11759461B2, “Small molecule inhibitors of cancer stem cells and mesenchymal cancer types” (The Scripps Research Institute, priority 2017, dated 2023).
